According to ChEMBL document CHEMBL1123640, “Synthesis and antiviral activity of carbocyclic analogues of xylofuranosides of 2-amino-6-substituted-purines and 2-amino-6-substituted-8-azapurines” (1987):
Values after ≈ are worked out from the molar mass of the structure shown.

Key:
Human alphaherpesvirus 1 [1] = assay: Minimum inhibitory concentration required to inhibit Herpes simplex virus type 1 (strain 377) induced cytopathogenic effects by 50%. (experiment 2); assay type: functional
Human alphaherpesvirus 1 [2] = assay: Minimum inhibitory concentration required to inhibit Herpes simplex virus type 1 (strain 377) induced cytopathogenic effects by 50%. (experiment 1); assay type: functional
Human alphaherpesvirus 1 [3] = assay: The compound was tested in vitro for definite and significant anti viral activity against Herpes simplex virus type 1 (strain 377) (experiment 1); value indicates definite and significant antiviral activity; assay type: functional
Human alphaherpesvirus 1 [4] = assay: The compound was tested in vitro for definite and significant anti viral activity against Herpes simplex virus type 1 (strain 377) (experiment 2); value indicates definite and significant antiviral activity; assay type: functional
Human alphaherpesvirus 2 [5] = assay: Minimum inhibitory concentration required to inhibit Herpes simplex virus type 2 (strain MS) induced cytopathogenic effects by 50%. (experiment 2); assay type: functional; settings: Human alphaherpesvirus 2, MS
Human alphaherpesvirus 2 [6] = assay: The compound was tested in vitro for definite and significant anti viral activity against Herpes simplex virus type 2 (strain MS) (experiment 2); value indicates definite and significant antiviral activity; assay type: functional
P388 = assay: Tested for inhibitory activity against P-388 leukemia cells; assay type: functional; settings: Mus musculus, read-out: ED50 (the source's name)
Human alphaherpesvirus 2 [7] = assay: Minimum inhibitory concentration required to inhibit Herpes simplex virus type 2 (strain MS) induced cytopathogenic effects by 50%. (experiment 1); assay type: functional; settings: Human alphaherpesvirus 2, MS
Human alphaherpesvirus 2 [8] = assay: The compound was tested in vitro for definite and significant anti viral activity against Herpes simplex virus type 2 (strain MS) (experiment 1); value indicates definite and significant antiviral activity; assay type: functional
MRC5 [9] = assay: Cytotoxicity (gross morphology) was evaluated at 3.2uM; assay type: functional, Homo sapiens
MRC5 [10] = assay: Cytotoxicity (gross morphology) was evaluated at 10 uM; assay type: functional, Homo sapiens
MRC5 [11] = assay: Cytotoxicity (gross morphology) was evaluated at 1 uM; assay type: functional, Homo sapiens
MRC5 [12] = assay: Percent reduction of CPE (plaques) at the time of harvest at 32 uM; assay type: functional, Homo sapiens
MRC5 [13] = assay: Percent reduction of CPE (plaques) at the time of harvest at 1000 uM (308 ug/mL); assay type: functional, Homo sapiens
Human alphaherpesvirus 1 [14] = assay: The compound was tested in vitro for anti viral activity against Herpes simplex virus type 1 (strain 377) (experiment 2); value indicates definite and significant antiviral activity; assay type: functional
MRC5 [15] = assay: Percent reduction of CPE (plaques) at the time of harvest at 1 uM; assay type: functional, Homo sapiens
MRC5 [16] = assay: Percent reduction of CPE (plaques) at the time of harvest at 3.2 uM; assay type: functional, Homo sapiens
MRC5 [17] = assay: Replication of human cytomegalovirus strain […] virus yield expressed as plaque forming units/mL at 10 uM; assay type: functional
Human alphaherpesvirus 2 [18] = assay: Minimum inhibitory concentration required to inhibit Herpes simplex virus type 2 (strain MS) induced cytopathogenic effects by 50%. (experiment 1)
Human alphaherpesvirus 1 [19] = assay: The compound was tested in vitro for anti viral activity against Herpes simplex virus type 1 (strain 377) (experiment 1); value indicates definite and significant antiviral activity; assay type: functional
MRC5 [20] = assay: Percent reduction of CPE (plaques) at the time of harvest at 10 uM; assay type: functional, Homo sapiens
MRC5 [21] = assay: Replication of human cytomegalovirus strain […] virus yield expressed as plaque forming units/mL at 100 uM; assay type: functional
MRC5 [22] = assay: Replication of human cytomegalovirus strain […] virus yield reduction assay in human diploid embryonic lung cells (MRC5) at 10 uM; assay type: functional
MRC5 [23] = assay: Replication of human cytomegalovirus strain […] virus yield expressed as plaque forming units/mL at 320 uM; assay type: functional
MRC5 [24] = assay: Replication of human cytomegalovirus strain […] virus yield expressed as plaque forming units/mL at 32 uM; assay type: functional
MRC5 [25] = assay: Replication of human cytomegalovirus strain […] virus yield reduction assay in human diploid embryonic lung cells (MRC5) at 32 uM; assay type: functional
Homo sapiens [26] = organism: Homo sapiens; assay: Antiviral activity against Varicella-Zoster virus (VV) in human foreskin cell cultures in virus plaque reduction assay at 100 uM; assay type: functional
MRC5 [27] = assay: Replication of human cytomegalovirus strain […] virus yield expressed as plaque forming units/mL at 1000 uM (308 ug/mL); assay type: functional
MRC5 [28] = assay: Replication of human cytomegalovirus strain […] virus yield reduction assay in human diploid embryonic lung cells (MRC5) at 1 uM; assay type: functional
Homo sapiens [29] = organism: Homo sapiens; assay: Antiviral activity against Varicella-Zoster virus (VV) in human foreskin cell cultures in virus plaque reduction assay at 32 uM; assay type: functional
MRC5 [30] = assay: (§1) Cytotoxicity was determined at 100 uM; assay type: functional, Homo sapiens
Homo sapiens [31] = organism: Homo sapiens; assay: Antiviral activity against Varicella-Zoster virus (VV) in human foreskin cell cultures in virus plaque reduction assay at 1 uM; assay type: functional
MRC5 [32] = assay: Percent reduction of CPE (plaques) at the time of harvest at 100 uM; assay type: functional, Homo sapiens
Homo sapiens [33] = organism: Homo sapiens; assay: Antiviral activity against Varicella-Zoster virus (VV) in human foreskin cell cultures in virus plaque reduction assay at 1000 uM; assay type: functional
MRC5 [34] = assay: Replication of human cytomegalovirus strain […] virus yield reduction assay in human diploid embryonic lung cells (MRC5) at 100 uM; assay type: functional
MRC5 [35] = assay: (§2) Cytotoxicity was determined at 32 uM; assay type: functional, Homo sapiens
Human alphaherpesvirus 2 [36] = assay: The compound was tested in vitro for anti viral activity against Herpes simplex virus type 2 (strain MS) (experiment 2); value indicates definite and significant antiviral activity
MRC5 [37] = assay: Replication of human cytomegalovirus strain […] virus yield reduction assay in human diploid embryonic lung cells (MRC5) at 3.2 uM; assay type: functional
MRC5 [38] = assay: Percent reduction of CPE (plaques) at the time of harvest at 320 uM; assay type: functional, Homo sapiens
MRC5 [39] = assay: Replication of human cytomegalovirus strain […] virus yield expressed as plaque forming units/mL at 3.2 uM; assay type: functional
MRC5 [40] = assay: Replication of human cytomegalovirus strain […] virus yield reduction assay in human diploid embryonic lung cells (MRC5) at 1000 uM (308 ug/mL); assay type: functional
Human alphaherpesvirus 2 [41] = assay: Minimum inhibitory concentration required to inhibit Herpes simplex virus type 2 (strain MS) induced cytopathogenic effects by 50%. (experiment 2)
Homo sapiens [42] = organism: Homo sapiens; assay: Antiviral activity against Varicella-Zoster virus (VV) in human foreskin cell cultures in virus plaque reduction assay at 10 uM; assay type: functional
MRC5 [43] = assay: Cytotoxicity (gross morphology) was evaluated at 100 uM; assay type: functional, Homo sapiens
Human alphaherpesvirus 2 [44] = assay: The compound was tested in vitro for anti viral activity against Herpes simplex virus type 2 (strain MS) (experiment 1); value indicates definite and significant antiviral activity
MRC5 [45] = assay: Replication of human cytomegalovirus strain […] virus yield reduction assay in human diploid embryonic lung cells (MRC5) at 320 uM; assay type: functional
MRC5 [46] = assay: Replication of human cytomegalovirus strain […] virus yield expressed as plaque forming units/mL at 1 uM; assay type: functional
Homo sapiens [47] = organism: Homo sapiens; assay: Antiviral activity against Varicella-Zoster virus (VV) in human foreskin cell cultures in virus plaque reduction assay at 320 uM; assay type: functional
MRC5 [48] = assay: (§3) Cytotoxicity was determined at 320 uM; assay type: functional, Homo sapiens
Homo sapiens [49] = organism: Homo sapiens; assay: Antiviral activity against Varicella-Zoster virus (VV) in human foreskin cell cultures in virus plaque reduction assay at 3.2uM; assay type: functional
MRC5 [50] = assay: Cytotoxicity (gross morphology) was evaluated at 32 uM; assay type: functional, Homo sapiens
Homo sapiens [51] = organism: Homo sapiens; assay: as §2; assay type: functional
Homo sapiens [52] = organism: Homo sapiens; assay: as §3; assay type: functional
Homo sapiens [53] = organism: Homo sapiens; assay: Antiviral activity against Varicella-Zoster virus (VV) in human foreskin cell cultures in virus plaque reduction assay at 3.2 uM; assay type: functional
Homo sapiens [54] = organism: Homo sapiens; assay: as §1; assay type: functional
Homo sapiens [55] = organism: Homo sapiens; assay: Cytotoxicity was determined at 1000 uM; assay type: functional
Human alphaherpesvirus 2 [56] = assay: Minimum inhibitory concentration required to inhibit Herpes simplex virus type 2 (strain MS) induced cytopathogenic effects by 50%.; assay type: functional
Human alphaherpesvirus 2 [57] = assay: The compound was tested in vitro for anti viral activity against Herpes simplex virus type 2 (strain MS); assay type: functional
Human alphaherpesvirus 1 [58] = assay: The compound was tested in vitro for anti viral activity against Herpes simplex virus type 1 (strain 377); assay type: functional
Human alphaherpesvirus 1 [59] = assay: Minimum inhibitory concentration required to inhibit Herpes simplex virus type 1 (strain 377) induced cytopathogenic effects by 50%.; assay type: functional

Nc1nc(O)c2nnn(C3CC(CO)C(O)C3O)c2n1 (stereo unspecified)
MIC50 (Human alphaherpesvirus 1 [1]): 93.1 µg/mL (≈ 330 µM)
MIC50 (Human alphaherpesvirus 1 [2]): 60.8 µg/mL (≈ 215 µM)
Virus rating (Human alphaherpesvirus 1 [3]): 2.4
Virus rating (Human alphaherpesvirus 1 [4]): 2.5
MIC50 (Human alphaherpesvirus 2 [5]): 240 µg/mL (≈ 852 µM)
Virus rating (Human alphaherpesvirus 2 [6]): 1.1
EC50 (P388): 1.6 µM
MIC50 (Human alphaherpesvirus 2 [7]): 92.2 µg/mL (≈ 327 µM)
Virus rating (Human alphaherpesvirus 2 [8]): 1.3

Nc1nc(O)c2ncn(C3CC(CO)C(O)C3O)c2n1 (stereo unspecified)
MIC50 (Human alphaherpesvirus 1 [1]): 3 µg/mL (≈ 10.7 µM)
Cytotoxicity (MRC5 [9]): 0
Cytotoxicity (MRC5 [10]): 0
Cytotoxicity (MRC5 [11]): 0
Reduction (MRC5 [12]): 25%
Reduction (MRC5 [13]): 100%
Virus rating (Human alphaherpesvirus 1 [14]): 5.6
Reduction (MRC5 [15]): 0%
Reduction (MRC5 [16]): 0%
CMV yield (MRC5 [17]): 96000 pfu/ml
MIC50 (Human alphaherpesvirus 2 [18]): 22.8 µg/mL (≈ 81.1 µM)
Virus rating (Human alphaherpesvirus 1 [19]): 5.7
Reduction (MRC5 [20]): 0%
CMV yield (MRC5 [21]): 100 pfu/ml
Virus yield reduction (MRC5 [22]): 0.2
CMV yield (MRC5 [23]): 0 pfu/ml
MIC50 (Human alphaherpesvirus 1 [2]): 1.8 µg/mL (≈ 6.4 µM)
CMV yield (MRC5 [24]): 12800 pfu/ml
Virus yield reduction (MRC5 [25]): 1.1
Reduction (Homo sapiens [26]): 100%
CMV yield (MRC5 [27]): 0 pfu/ml
Virus yield reduction (MRC5 [28]): 0.2
Reduction (Homo sapiens [29]): 79%
Cytotoxicity (MRC5 [30]): 0
Reduction (Homo sapiens [31]): 18%
Reduction (MRC5 [32]): 80%
Reduction (Homo sapiens [33]): 100%
Virus yield reduction (MRC5 [34]): 3.2
Cytotoxicity (MRC5 [35]): 0
Virus rating (Human alphaherpesvirus 2 [36]): 3.9
Virus yield reduction (MRC5 [37]): 0.2
Reduction (MRC5 [38]): 100%
CMV yield (MRC5 [39]): 108000 pfu/ml
Virus yield reduction (MRC5 [40]): 5.2
MIC50 (Human alphaherpesvirus 2 [41]): 23.5 µg/mL (≈ 83.5 µM)
Reduction (Homo sapiens [42]): 26%
Cytotoxicity (MRC5 [43]): 0
Virus rating (Human alphaherpesvirus 2 [44]): 2.6
EC50 (P388): 8.9 µM
Virus yield reduction (MRC5 [45]): 5.2
CMV yield (MRC5 [46]): 96000 pfu/ml
Reduction (Homo sapiens [47]): 100%
Cytotoxicity (MRC5 [48]): 0
Reduction (Homo sapiens [49]): 18%
Cytotoxicity (MRC5 [50]): 0

Nc1nc2c(ncn2COCCO)c(=O)[nH]1 [ACYCLOVIR]
Cytotoxicity (Homo sapiens [51]): 0
Cytotoxicity (Homo sapiens [52]): 0
Reduction (Homo sapiens [53]): 32%
Reduction (Homo sapiens [26]): 94%
Reduction (Homo sapiens [29]): 79%
Reduction (Homo sapiens [31]): 35%
Reduction (Homo sapiens [33]): 100%
Cytotoxicity (Homo sapiens [54]): 0
Cytotoxicity (Homo sapiens [55]): 0
Reduction (Homo sapiens [42]): 41%
Reduction (Homo sapiens [47]): 100%

Nc1nc2c(ncn2COC(CO)CO)c(=O)[nH]1 [GANCICLOVIR]
Cytotoxicity (Homo sapiens [51]): 0
Cytotoxicity (Homo sapiens [52]): 0
Reduction (Homo sapiens [53]): 24%
Reduction (Homo sapiens [26]): 82%
Reduction (Homo sapiens [29]): 56%
Reduction (Homo sapiens [33]): 97%
Cytotoxicity (Homo sapiens [54]): 0
Reduction (Homo sapiens [55]): 0
Reduction (Homo sapiens [42]): 35%
Reduction (Homo sapiens [47]): 97%

Nc1ncnc2c1ncn2[C@@H]1O[C@H](CO)[C@@H](O)[C@@H]1O [VIDARABINE]
Cytotoxicity (Homo sapiens [51]): 0
Reduction (Homo sapiens [53]): 18%
MIC50 (Human alphaherpesvirus 2 [56]): 30 µg/mL (≈ 112 µM)
Reduction (Homo sapiens [26]): 97%
Virus rating (Human alphaherpesvirus 2 [57]): 2.3
Reduction (Homo sapiens [29]): 97%
Virus rating (Human alphaherpesvirus 1 [58]): 3.1
Cytotoxicity (Homo sapiens [54]): 0
Reduction (Homo sapiens [42]): 44%
MIC50 (Human alphaherpesvirus 1 [59]): 9.8 µg/mL (≈ 36.7 µM)
Reduction (Homo sapiens [47]): 100%
